Converted amounts (≈) assume the structure as drawn.
Experiments:
[1] = target: T1, DNA gyrase subunit A/DNA gyrase subunit B (Mycobacterium tuberculosis (strain ATCC 25618 / H37Rv), UniProt P9WG45+P9WG47); experiment: (§1) Inhibition of Mycobacterium tuberculosis DNA gyrase assessed as inhibition of DNA supercoiling activity using relaxed pBR322 as substrate incubated for 30 mins in presence of ATP by ethidium bromide staining based agarose gel electrophoresis
[2] = as §1, with “Staphylococcus aureus WCUH29” for “Mycobacterium tuberculosis”, “gyrase expressed in Escherichia coli Rosetta 2 (DE3) pLysS cells” for “gyrase”
[3] = Inhibition of Escherichia coli DNA gyrase assessed as inhibition of DNA supercoiling activity using relaxed pBR322 as substrate incubated for 30 mins in presence of ATP by ethidium bromide staining based agarose gel electrophoresis
[4] = Cytotoxicity against mouse RAW264.7 cells assessed as inhibition of cell viability at 100 uM measured after 72 hrs by MTT assay relative to control; assay type: toxicity; settings: read-out: INH
DNA gyrase subunit B = DNA gyrase subunit B (Mycobacterium smegmatis, UniProt P0C559); experiment: Inhibition of Mycobacterium smegmatis DNA gyrase B expressed in BL21(DE3)pLysS cells assessed as inhibition of […] activity in presence of ATP measured after 30 mins by malachite green dye based assay; assay type: cell-based, Mycolicibacterium smegmatis
Chain of DNA gyrase subunit B (P0C559 whole entry): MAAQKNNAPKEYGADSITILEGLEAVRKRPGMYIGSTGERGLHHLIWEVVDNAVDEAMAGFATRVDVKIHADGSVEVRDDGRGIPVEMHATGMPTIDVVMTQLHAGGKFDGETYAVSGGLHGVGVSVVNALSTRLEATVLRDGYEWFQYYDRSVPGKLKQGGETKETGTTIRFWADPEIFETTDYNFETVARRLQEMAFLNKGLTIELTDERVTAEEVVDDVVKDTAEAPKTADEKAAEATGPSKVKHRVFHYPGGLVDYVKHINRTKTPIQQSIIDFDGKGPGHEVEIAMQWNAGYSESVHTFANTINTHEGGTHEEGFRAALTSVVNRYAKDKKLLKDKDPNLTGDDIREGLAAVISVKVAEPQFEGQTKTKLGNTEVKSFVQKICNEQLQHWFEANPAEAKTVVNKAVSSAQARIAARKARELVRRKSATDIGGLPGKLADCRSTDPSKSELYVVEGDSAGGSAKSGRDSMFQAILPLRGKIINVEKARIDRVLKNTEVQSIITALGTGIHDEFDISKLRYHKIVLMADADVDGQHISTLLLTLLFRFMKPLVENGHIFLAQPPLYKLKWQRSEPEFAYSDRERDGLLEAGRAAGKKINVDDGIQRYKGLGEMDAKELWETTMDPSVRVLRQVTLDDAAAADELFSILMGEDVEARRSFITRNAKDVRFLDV

[5] = target: T1, DNA gyrase subunit A/DNA gyrase subunit B; experiment: (§2) Inhibition of Mycobacterium tuberculosis DNA gyrase assessed as inhibition of DNA supercoiling activity using relaxed pBR322 as substrate incubated for 30 mins by ethidium bromide staining based agarose gel electrophoresis
[6] = target: DNA gyrase subunit A/DNA gyrase subunit B (Mycobacterium tuberculosis (strain ATCC 25618 / H37Rv)) (UniProt P9WG45+P9WG47); experiment: as §2
[7] = tested on: Mycobacterium tuberculosis; experiment: Inhibition of Mycobacterium tuberculosis topoisomerase-1 using DNA as substrate preincubated for 15 mins followed by substrate addition measured after 30 mins by ethidium-bromide based agarose gel electrophoresis
[8] = tested on: Mycobacterium tuberculosis; experiment: Antimycobacterial activity against Mycobacterium tuberculosis; assay type: functional
Escherichia coli = experiment: Antimicrobial activity against Escherichia coli; assay type: functional
[9] = target: DNA gyrase subunit B (Mycobacterium smegmatis) (UniProt P0C559); experiment: Inhibition of Mycobacterium smegmatis DNA gyrase-B ATPase activity after 30 mins by ammonium molybdate/malachite green-based phosphate detection assay; settings: Mycolicibacterium smegmatis
Chain of DNA gyrase subunit B (Mycobacterium smegmatis) (P0C559 2-675 limits assumed): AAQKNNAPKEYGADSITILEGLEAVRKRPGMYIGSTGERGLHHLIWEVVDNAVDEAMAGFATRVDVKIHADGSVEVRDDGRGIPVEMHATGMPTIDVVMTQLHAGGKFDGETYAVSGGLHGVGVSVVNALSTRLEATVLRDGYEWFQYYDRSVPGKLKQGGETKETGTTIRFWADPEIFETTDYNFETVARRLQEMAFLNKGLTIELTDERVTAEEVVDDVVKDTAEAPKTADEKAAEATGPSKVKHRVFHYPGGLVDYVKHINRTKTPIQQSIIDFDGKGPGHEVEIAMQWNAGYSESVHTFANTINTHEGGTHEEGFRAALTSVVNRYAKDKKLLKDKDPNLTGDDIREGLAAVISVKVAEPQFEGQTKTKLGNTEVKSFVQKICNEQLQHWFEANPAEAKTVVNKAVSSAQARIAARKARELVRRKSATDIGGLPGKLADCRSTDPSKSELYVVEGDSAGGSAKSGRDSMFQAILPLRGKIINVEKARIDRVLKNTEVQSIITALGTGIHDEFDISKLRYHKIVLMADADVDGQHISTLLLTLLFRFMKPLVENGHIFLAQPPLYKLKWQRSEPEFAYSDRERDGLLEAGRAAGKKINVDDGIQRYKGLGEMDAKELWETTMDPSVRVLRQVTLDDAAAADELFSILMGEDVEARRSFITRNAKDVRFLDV

[10] = tested on: Mycobacterium tuberculosis; experiment: Antimycobacterial activity against Mycobacterium tuberculosis measured after 5 days by microplate alamar blue assay; assay type: functional; settings: 120 h
[11] = Cytotoxicity against mouse RAW264.7 cells assessed as inhibition of cell viability at 100 uM measured after 48 hrs by MTT assay relative to control; assay type: toxicity; settings: read-out: INH
[12] = tested on: Mycobacterium tuberculosis; experiment: Antimycobacterial activity against Mycobacterium tuberculosis incubated for 7 days by alamar blue assay; assay type: functional; settings: 168 h

T1 sequence (P9WG45 whole entry): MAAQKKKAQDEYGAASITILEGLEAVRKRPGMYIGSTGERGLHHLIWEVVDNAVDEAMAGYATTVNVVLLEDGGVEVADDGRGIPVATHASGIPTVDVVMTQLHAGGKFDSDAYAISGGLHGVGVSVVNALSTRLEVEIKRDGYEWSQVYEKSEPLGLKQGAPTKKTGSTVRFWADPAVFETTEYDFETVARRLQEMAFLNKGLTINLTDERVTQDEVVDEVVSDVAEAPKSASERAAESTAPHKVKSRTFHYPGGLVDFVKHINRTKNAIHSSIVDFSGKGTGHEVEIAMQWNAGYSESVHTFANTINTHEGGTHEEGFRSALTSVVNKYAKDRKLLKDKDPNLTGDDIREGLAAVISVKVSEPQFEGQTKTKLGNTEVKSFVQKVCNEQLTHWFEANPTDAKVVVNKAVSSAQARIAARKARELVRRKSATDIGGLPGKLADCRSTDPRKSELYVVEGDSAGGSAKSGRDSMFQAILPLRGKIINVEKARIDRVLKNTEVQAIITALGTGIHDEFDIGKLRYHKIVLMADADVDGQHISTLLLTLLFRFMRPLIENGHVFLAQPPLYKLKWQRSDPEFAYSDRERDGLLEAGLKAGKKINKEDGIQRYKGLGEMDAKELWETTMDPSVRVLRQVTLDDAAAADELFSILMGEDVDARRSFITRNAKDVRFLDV
T1 sequence (P9WG47 whole entry): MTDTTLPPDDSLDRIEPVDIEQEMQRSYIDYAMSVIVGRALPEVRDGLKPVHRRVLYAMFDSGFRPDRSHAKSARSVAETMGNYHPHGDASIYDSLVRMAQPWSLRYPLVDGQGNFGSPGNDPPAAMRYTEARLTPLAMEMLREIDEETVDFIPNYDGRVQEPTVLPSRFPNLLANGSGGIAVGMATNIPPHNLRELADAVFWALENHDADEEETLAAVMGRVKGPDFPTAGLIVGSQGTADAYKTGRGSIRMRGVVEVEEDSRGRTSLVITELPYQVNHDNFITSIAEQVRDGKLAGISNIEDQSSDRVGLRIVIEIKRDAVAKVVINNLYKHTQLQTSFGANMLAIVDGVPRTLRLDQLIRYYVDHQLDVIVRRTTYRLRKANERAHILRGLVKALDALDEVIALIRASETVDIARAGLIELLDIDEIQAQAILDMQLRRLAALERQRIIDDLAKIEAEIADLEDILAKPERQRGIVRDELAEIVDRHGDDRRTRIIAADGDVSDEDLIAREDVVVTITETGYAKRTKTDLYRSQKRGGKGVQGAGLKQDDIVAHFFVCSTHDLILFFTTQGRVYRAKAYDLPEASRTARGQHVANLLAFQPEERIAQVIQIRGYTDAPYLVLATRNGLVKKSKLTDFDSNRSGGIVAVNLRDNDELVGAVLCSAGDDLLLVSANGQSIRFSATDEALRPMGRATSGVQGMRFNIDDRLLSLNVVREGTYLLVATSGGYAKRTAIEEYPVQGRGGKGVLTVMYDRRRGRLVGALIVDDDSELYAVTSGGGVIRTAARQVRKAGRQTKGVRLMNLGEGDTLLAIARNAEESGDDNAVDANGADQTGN

Compound	cytotoxicity at 72 h, 100 µM [4] [%]	IC50 (DNA gyrase subunit B) [µM]	IC50 [5] [µM]	also measured
Cc1cc(O)c2c(c1)C(=O)C=CC2=O [RAMENTACEONE]	–	–	–	IC50 [1]: 30 µM; IC50 [2]: 60 µM; IC50 [3]: 30 µM
O=C1C(=O)N(CCN2CCN(NCc3ccc(Cl)cc3Cl)CC2)c2ccccc21	18.5	84	40.3	–
Cc1cc(O)c2c(c1)C(=O)C=C(c1c(C)cc(O)c3c1C(=O)C=CC3=O)C2=O [NEODIOSPYRIN]	–	–	–	IC50 [1]: 50 µM
Clc1ccc(/N=N/c2cnc3cc4ccccc4cc3n2)cc1	–	–	–	INH [6]: 12 µM
COc1ccc2c(c1)C(=O)C(=O)N2CCN1CCN(NCc2ccccc2)CC1	21.6	92	48.2	–
COc1ccc2c(c1)C(=O)C(=O)N2CCN1CCN(NCc2cccc(Cl)c2Cl)CC1	23.9	73	48.6	–
O=C1C(=O)N(CCN2CCN(NCc3ccc([N+](=O)[O-])o3)CC2)c2ccc(Cl)cc21	34.2	47.5	23.9	–
O=C1C(=O)N(CCN2CCN(NCc3ccc(Cl)cc3Cl)CC2)c2ccc(Cl)cc21	24	68	50	–
O=C1C(=O)N(CCN2CCN(NCc3ccc([N+](=O)[O-])o3)CC2)c2ccccc21	30.6	20.2	4.6	–
Fc1ccc(/N=N/c2cnc3cc4ccccc4cc3n2)cc1	–	–	–	INH [6]: 50 µM
Cc1ccc2c(c1)C(=O)C(=O)N2CCN1CCN(NCc2ccc(Cl)cc2Cl)CC1	25.3	79	48.9	–
Clc1cccc(-c2cnc3cc(-c4ccc5cn[nH]c5c4)cnc3n2)c1	–	–	–	INH [7]: 7.5 µM
Cc1cc(O)c2c(c1)C(O)CCC2=O (stereo unspecified)	–	–	–	IC50 [1]: > 200 µM
COc1ccccc1CNN1CCN(CCN2C(=O)C(=O)c3cc(C)ccc32)CC1	9.42	14.1	5	–
O=C1C(=O)N(CCN2CCN(NCc3ccccc3OCc3ccccc3)CC2)c2ccccc21	13.9	26.6	10	–
COc1ccc2c(c1)C(=O)C(=O)N2CCN1CCN(NCc2ccccc2C(F)(F)F)CC1	10.5	61.5	39.1	–
Cn1ccc2cc(-c3cnc4nc(-c5ccccc5)cnc4c3)ccc21	–	–	–	INH [7]: 0.1 µM
O=C1C(=O)N(CCN2CCN(NCc3ccccc3C(F)(F)F)CC2)c2ccc(F)cc21	20.6	10.6	3.6	–
Cc1ccc2c(c1)C(=O)C(=O)N2CCN1CCN(NCc2ccccc2OCc2ccccc2)CC1	34.6	28.3	10	–
COc1ccc2c(c1)C(=O)C(=O)N2CCN1CCN(NCc2ccccc2OC)CC1	15.4	81.2	48.6	–
O=C1C(=O)N(CCN2CCN(NCc3ccccc3OCc3ccccc3)CC2)c2ccc(Cl)cc21	26.8	13.8	3.8	–
COc1ccccc1CNN1CCN(CCN2C(=O)C(=O)c3cc(Cl)ccc32)CC1	24	76	50	–
O=C1C(=O)N(CCN2CCN(NCc3cccc(Cl)c3Cl)CC2)c2ccccc21	16.8	21.7	4.8	–
COc1ccc2c(c1)C(=O)C(=O)N2CCN1CCN(NCc2ccccc2OCc2ccccc2)CC1	16.3	69.7	36.5	–

Compound	cytotoxicity at 72 h, 100 µM [4] [%]	IC50 (DNA gyrase subunit B) [µM]	IC50 [5] [µM]	also measured
O=C1C(=O)N(CCN2CCN(NCc3ccc(Cl)cc3Cl)CC2)c2ccc(F)cc21	13.9	43	24.2	–
Cc1cc(O)c2c(c1)C(=O)C(c1c(C)cc3c(c1O)C(=O)C=CC3=O)=CC2=O [DIOSPYRIN]	–	–	–	IC50 [1]: 15 µM; IC50 [2]: 8 µM; IC50 [3]: 4 µM
O=C1C(=O)N(CCN2CCN(NCc3ccccc3C(F)(F)F)CC2)c2ccccc21	4.2	51	25	–
O=C1C(=O)N(CCN2CCN(NCc3ccccc3F)CC2)c2ccc(F)cc21	22.1	20.3	4.2	–
O=C1COc2ccc(CNC3CCN(CC4CCc5c(F)ccc6ccc(=O)n4c56)CC3)nc2N1 (stereo unspecified)	–	–	–	MIC [8]: 300 to 2000 µg/mL (≈ 628 to 4190 µM)
O=C1C(=O)N(CCN2CCN(NCc3ccccc3C(F)(F)F)CC2)c2ccc(Cl)cc21	16.4	22.1	4.9	–
c1ccc(N2CCC(Cc3nc4cc5ccccc5cc4nc3CN3CCN(c4ccccn4)CC3)CC2)nc1	–	–	–	INH [7]: 7.5 µM
Cc1cc2c(c(O)c1-c1c(C)cc(O)c3c1C(=O)C=CC3=O)C(=O)C=CC2=O	–	–	–	IC50 [1]: 100 µM
COc1ccc2c(c1)C(=O)C(=O)N2CCN1CCN(NCc2ccc(Cl)cc2Cl)CC1	26.4	15.8	4.1	–
Cc1ccc2c(c1)C(=O)C(=O)N2CCN1CCN(NCc2ccccc2F)CC1	27.6	76	50	–
Cc1ccc2c(c1)C(=O)C(=O)N2CCN1CCN(NCc2cccc(Cl)c2Cl)CC1	27.8	53.6	43.1	–
CCCCCCN1CCC(CCC(O)c2ccnc3ccc(OC)cc23)C(CC)C1 (stereo unspecified)	–	–	–	MIC (Escherichia coli): 4000 µg/mL (≈ 9690 µM)
CCNC(=O)Nc1nc2cc(-c3cncnc3)c(OCC3CCOCC3)nc2s1	–	–	–	INH [9]: 2.5 nM; MIC [10]: 60 µg/mL (≈ 145 µM)
Cc1ccc(-c2cnc3cc(-c4ccc5[nH]ccc5c4)cnc3n2)cc1	–	–	–	INH [7]: 0.1 µM
Brc1c2ccccc2c(Br)c2nc(-c3ccco3)c(-c3ccco3)nc12	–	–	–	INH [7]: 0.1 µM
O=C1C(=O)N(CCN2CCN(NCc3ccccc3OCc3ccccc3)CC2)c2ccc(F)cc21	11.7	70.1	42.3	–
CC1=CC(=O)c2ccccc2C1=O [MENADIONE]	–	–	–	IC50 [1]: > 200 µM
O=C1C(=O)N(CCN2CCN(NCc3cccc(Cl)c3Cl)CC2)c2ccc(Cl)cc21	17.4	43.2	25.6	–
COc1ccc2ncc(=O)n(-c3cnc4c(c3)CCC(NCc3ccc5c(n3)NC(=O)CO5)C4)c2n1 (stereo unspecified)	–	–	–	MIC [8]: 300 to 2000 µg/mL (≈ 618 to 4120 µM)
O=C1C(=O)N(CCN2CCN(NCc3ccccc3F)CC2)c2ccccc21	10.3	83	43.6	–
O=C1CSc2ccc(CNC3CCN(CC4CCN5C(=O)C=CC6N=CC(=O)N4C65)CC3)nc2N1 (stereo unspecified)	–	–	–	MIC [8]: 300 to 2000 µg/mL (≈ 605 to 4040 µM)
O=c1nc(N2CCN(C(=S)Nc3ccc([N+](=O)[O-])cc3)CC2)sc2ccc(C(F)(F)F)cc12	–	–	2.16	cytotoxicity at 48 h, 100 µM [11]: 5.48%; MIC [12]: 5.04 µM (≈ 2.5 µg/mL)
O=c1nc(N2CCN(C(=S)Nc3ccccc3)CC2)sc2ccc([N+](=O)[O-])cc12	–	–	0.77	cytotoxicity at 48 h, 100 µM [11]: 3.25%; MIC [12]: 1.82 µM (≈ 0.778 µg/mL)
O=C1COc2ccc(CNC3CCN(CCn4c(=O)ccc5cc(F)ccc54)CC3)nc2N1	–	–	–	MIC [8]: 300 to 2000 µg/mL (≈ 664 to 4430 µM)
